Laboratory results reported in ChEMBL document CHEMBL4017541, “Membrane-Active Hydantoin Derivatives as Antibiotic Agents” (J Med Chem, 2017).
≈ marks a conversion by molar mass, not a printed value. Calls of active or inactive are those of the source. The calls are words filed in the database; no cut-off is given here.

What was measured:
Klebsiella pneumoniae = assay: Antimicrobial activity against Klebsiella pneumoniae ATCC 13383 after 16 hrs; type: functional; settings: ATCC 13383, 16 h
Staphylococcus aureus [1] = assay: Antimicrobial activity against methicillin resistant Staphylococcus aureus ATCC 33591 after 16 hrs; type: functional; settings: ATCC 33591, 16 h
[2] = tested on: Staphylococcus epidermidis; assay: Antimicrobial activity against methicillin resistant Staphylococcus epidermidis RP62A after 16 hrs; type: functional
Pseudomonas aeruginosa = assay: Antimicrobial activity against Pseudomonas aeruginosa ATCC 27853 after 16 hrs; type: functional; settings: ATCC 27853, 16 h
Enterococcus faecalis = assay: Antimicrobial activity against vancomycin resistant Enterococcus faecalis ATCC 700802 after 16 hrs; type: functional; settings: ATCC 700802, 16 h
Escherichia coli = assay: Antimicrobial activity against Escherichia coli ATCC 25922 after 16 hrs; type: functional; settings: ATCC 25922, 16 h
[3] = Retention time of compound by HPLC analysis
[4] = Selectivity index, ratio of HC50 for mouse RBC to MIC for methicillin resistance Staphylococcus aureus ATCC 33591
Staphylococcus aureus [5] = assay: Antibacterial activity against methicillin resistant Staphylococcus aureus ATCC 33591 infected in Wistar rat assessed as reduction in lung inflammation at 10 mg/kg, iv treated 24 hrs post infection measured after 3 days by hematoxylin/ eosin staining based microscopic analysis; type: functional, organism-based
Staphylococcus aureus [6] = assay: Antibacterial activity against methicillin resistance Staphylococcus aureus ATCC 33591 infected in Wistar rat assessed as reduction in bacterial load in bronchoalveolar lavage of lungs at 10 mg/kg, iv treated 24 hrs post infection measured after 3 days relative to control; type: functional; parameters: scale not given: the % may be the effect or the level left
Staphylococcus aureus [7] = assay: Antibacterial activity against methicillin resistance Staphylococcus aureus ATCC 33591 infected in Wistar rat assessed as reduction in bacterial load in bronchoalveolar lavage of lungs at 10 mg/kg, iv treated 24 hrs post infection measured after 5 days relative to control; type: functional; parameters: scale not given: the % may be the effect or the level left
Staphylococcus aureus [8] = assay: Antibacterial activity against methicillin resistant Staphylococcus aureus ATCC 33591 infected in Wistar rat assessed as reduction in lung inflammation at 10 mg/kg, iv treated 24 hrs post infection measured after 5 days by hematoxylin/ eosin staining based microscopic analysis; type: functional, organism-based

Row | Structure (SMILES) | MIC (Klebsiella pneumoniae) | MIC (Staphylococcus aureus [1]) | MIC [2] | MIC (Pseudomonas aeruginosa) | MIC (Enterococcus faecalis) | MIC (Escherichia coli) | Retention time [3] | Selectivity Index [4] | Activity (Staphylococcus aureus [5]) | Activity (Staphylococcus aureus [6]) | Activity (Staphylococcus aureus [7]) | Activity (Staphylococcus aureus [8])
1 | CCCCCCCCCCCC(=O)N[C@@H](CCCCN)CN1CC(=O)N(C23CC4CC(CC(C4)C2)C3)C1=O | > 50 mg/L | 6.25 mg/L (≈ 11.8 µM) | 6.25 mg/L (≈ 11.8 µM) | > 50 mg/L | 6.25 mg/L (≈ 11.8 µM) | 12.5 mg/L (≈ 23.5 µM) | – | – | – | – | – | –
2 | CCCCCCCCCCCCCC(=O)N[C@@H](CCCCN)CN1CC(=O)N(C2CCCCC2)C1=O | 6.25 mg/L (≈ 12.3 µM) | 3.12 mg/L (≈ 6.16 µM) | 6.25 mg/L (≈ 12.3 µM) | > 50 mg/L | 6.25 mg/L (≈ 12.3 µM) | 12.5 mg/L (≈ 24.7 µM) | – | – | – | – | – | –
3 | CCCCCCCCCCCCCCCC(=O)N[C@@H](CCCCN)CN1CC(=O)N(CC)C1=O | 12.5 mg/L (≈ 26 µM) | 3.12 mg/L (≈ 6.49 µM) | 3.12 mg/L (≈ 6.49 µM) | > 50 mg/L | 3.12 mg/L (≈ 6.49 µM) | 3.12 mg/L (≈ 6.49 µM) | < 26 min | – | – | – | – | –
4 | CCCCCCCCCC(=O)N[C@@H](CCCCN)CN1CC(=O)N(C2CCCCC2)C1=O | 25 mg/L (≈ 55.5 µM) | 25 mg/L (≈ 55.5 µM) | > 50 mg/L | > 50 mg/L | > 50 mg/L | 12.5 mg/L (≈ 27.7 µM) | < 26 min | – | – | – | – | –
5 | O=C1CN(/N=C/c2ccc([N+](=O)[O-])o2)C(=O)N1 [NITROFURANTOIN] | 25 mg/L (≈ 105 µM) | 12.5 mg/L (≈ 52.5 µM) | 6.25 mg/L (≈ 26.2 µM) | > 50 mg/L | 12.5 mg/L (≈ 52.5 µM) | 6.25 mg/L (≈ 26.2 µM) | – | – | – | – | – | –
6 | CCCCCCCCCCCC(=O)N[C@@H](CCCCN)CN1CC(=O)N(C2CCCCC2)C1=O | 6.25 mg/L (≈ 13.1 µM) | 6.25 mg/L (≈ 13.1 µM) | 6.25 mg/L (≈ 13.1 µM) | 12.5 mg/L (≈ 26.1 µM) | 12.5 mg/L (≈ 26.1 µM) | 6.25 mg/L (≈ 13.1 µM) | – | 16 | – | – | – | –
7 | CCCCCCCCCCCCCCCC(=O)N[C@@H](CCCCN)CN1CC(=O)N(c2ccc(OC)cc2)C1=O | > 50 mg/L | 3.12 mg/L (≈ 5.58 µM) | 6.25 mg/L (≈ 11.2 µM) | > 50 mg/L | 6.25 mg/L (≈ 11.2 µM) | > 50 mg/L | – | – | – | – | – | –
8 | CCCCCCCCCCCCCC(=O)N[C@@H](CCCCN)CN1CC(=O)N(C23CC4CC(CC(C4)C2)C3)C1=O | > 50 mg/L | – | 3.15 mg/L (≈ 5.64 µM) | > 50 mg/L | 6.25 mg/L (≈ 11.2 µM) | > 50 mg/L | – | – | – | – | – | –
9 | CCCCCCCCCC(=O)N[C@@H](CCCCN)CN1CC(=O)N(CC)C1=O | > 50 mg/L | > 50 mg/L | > 50 mg/L | > 50 mg/L | > 50 mg/L | > 50 mg/L | < 26 min | – | – | – | – | –
10 | CCCCCCCCCC(=O)N[C@@H](CCCCN)CN1CC(=O)N(C23CC4CC(CC(C4)C2)C3)C1=O | 6.25 mg/L (≈ 12.4 µM) | 6.25 mg/L (≈ 12.4 µM) | 6.25 mg/L (≈ 12.4 µM) | 12.5 mg/L (≈ 24.9 µM) | 12.5 mg/L (≈ 24.9 µM) | 6.25 mg/L (≈ 12.4 µM) | – | 20 | – | – | – | –
11 | CCCCCCCCCCCC(=O)N[C@@H](Cc1ccccc1)CN1CC(=O)N(c2cccc(Cl)c2)C1=O | > 50 mg/L | > 50 mg/L | > 50 mg/L | > 50 mg/L | > 50 mg/L | > 50 mg/L | < 26 min | – | – | – | – | –
12 | CCCCCCCCCCCCCCCC(=O)N[C@@H](CCCCN)CN1CC(=O)N(C23CC4CC(CC(C4)C2)C3)C1=O | > 50 mg/L | > 50 mg/L | > 50 mg/L | > 50 mg/L | > 50 mg/L | > 50 mg/L | – | – | – | – | – | –
13 | CCCCCCCCCCCCCC(=O)N[C@@H](CCCCN)CN1CC(=O)N(c2cccc(Cl)c2)C1=O | > 50 mg/L | 12.5 mg/L (≈ 23.4 µM) | 12.5 mg/L (≈ 23.4 µM) | > 50 mg/L | 12.5 mg/L (≈ 23.4 µM) | > 50 mg/L | – | – | – | – | – | –
14 | CCCCCCCCCCCCCC(=O)N[C@@H](CCCCN)CN1CC(=O)N(CCCC)C1=O | 12.5 mg/L (≈ 26 µM) | 6.25 mg/L (≈ 13 µM) | 6.25 mg/L (≈ 13 µM) | > 50 mg/L | 6.25 mg/L (≈ 13 µM) | 6.25 mg/L (≈ 13 µM) | – | – | – | – | – | –
15 | CCCCCCCCCCCC(=O)N[C@@H](CCCCN)CN1CC(=O)N(CC)C1=O | > 50 mg/L | > 50 mg/L | > 50 mg/L | > 50 mg/L | > 50 mg/L | 12.5 mg/L (≈ 29.4 µM) | < 26 min | – | – | – | – | –
16 | CCCCCCCCCCCC(=O)N[C@@H](CCCCN)CN1CC(=O)N(c2ccc(OC)cc2)C1=O | 12.5 mg/L (≈ 24.9 µM) | 25 mg/L (≈ 49.7 µM) | 25 mg/L (≈ 49.7 µM) | 12.5 mg/L (≈ 24.9 µM) | 25 mg/L (≈ 49.7 µM) | 12.5 mg/L (≈ 24.9 µM) | < 26 min | 8 | – | – | – | –
17 | CCCCCCCCCCCCCC(=O)N[C@@H](CCCCN)CN1CC(=O)N(c2ccc(OC)cc2)C1=O | 25 mg/L (≈ 47.1 µM) | 6.25 mg/L (≈ 11.8 µM) | 6.25 mg/L (≈ 11.8 µM) | > 50 mg/L | 6.25 mg/L (≈ 11.8 µM) | 6.25 mg/L (≈ 11.8 µM) | – | – | – | – | – | –
18 | CCCCCCCCCC(=O)N[C@@H](CCCCN)CN1CC(=O)N(c2cccc(Cl)c2)C1=O | 6.25 mg/L (≈ 13 µM) | 6.25 mg/L (≈ 13 µM) | 6.25 mg/L (≈ 13 µM) | 6.25 mg/L (≈ 13 µM) | 12.5 mg/L (≈ 26.1 µM) | 6.25 mg/L (≈ 13 µM) | – | 16 | – | – | – | –
19 | CCCCCCCCCC(=O)N[C@@H](CCCCN)CN1CC(=O)N(CCCC)C1=O | > 50 mg/L | > 50 mg/L | > 50 mg/L | > 50 mg/L | > 50 mg/L | > 50 mg/L | < 26 min | – | – | – | – | –
20 | CCCCCCCCCCCCCCCC(=O)N[C@@H](CCCCN)CN1CC(=O)N(CCCC)C1=O | > 50 mg/L | 6.25 mg/L (≈ 12.3 µM) | 6.25 mg/L (≈ 12.3 µM) | > 50 mg/L | 6.25 mg/L (≈ 12.3 µM) | > 50 mg/L | – | – | – | – | – | –
21 | CCCCCCCCCCCC(=O)N[C@@H](CCCCN)CN1CC(=O)N(CCCC)C1=O | 12.5 mg/L (≈ 27.6 µM) | 12.5 mg/L (≈ 27.6 µM) | 25 mg/L (≈ 55.2 µM) | 25 mg/L (≈ 55.2 µM) | 25 mg/L (≈ 55.2 µM) | 6.25 mg/L (≈ 13.8 µM) | < 26 min | 6.4 | – | – | – | –
22 | CCCCCCCCCC(=O)N[C@@H](CCCCN)CN1CC(=O)N(c2ccc(OC)cc2)C1=O | > 50 mg/L | > 50 mg/L | > 50 mg/L | > 50 mg/L | > 50 mg/L | > 50 mg/L | < 26 min | – | – | – | – | –
23 | CN[C@H](CC(C)C)C(=O)N[C@H]1C(=O)N[C@@H](CC(N)=O)C(=O)N[C@H]2C(=O)N[C@H]3C(=O)N[C@H](C(=O)N[C@H](C(=O)O)c4cc(O)cc(O)c4-c4cc3ccc4O)[C@H](O)c3ccc(c(Cl)c3)Oc3cc2cc(c3O[C@@H]2O[C@H](CO)[C@@H](O)[C@H](O)[C@H]2O[C@H]2C[C@](C)(N)[C@H](O)[C@H](C)O2)Oc2ccc(cc2Cl)[C@H]1O [VANCOMYCIN] | – | – | – | – | – | – | – | – | Active | 30% | 45% | Active
24 | CCCCCCCCCCCCCCCC(=O)N[C@@H](CCCCN)CN1CC(=O)N(C2CCCCC2)C1=O | > 50 mg/L | 3.12 mg/L (≈ 5.83 µM) | 25 mg/L (≈ 46.7 µM) | > 50 mg/L | 25 mg/L (≈ 46.7 µM) | > 50 mg/L | – | – | – | – | – | –
25 | CCCCCCCCCCCCCCCC(=O)N[C@@H](CCCCN)CN1CC(=O)N(c2cccc(Cl)c2)C1=O | > 50 mg/L | 12.5 mg/L (≈ 22.2 µM) | 12.5 mg/L (≈ 22.2 µM) | > 50 mg/L | 12.5 mg/L (≈ 22.2 µM) | > 50 mg/L | – | – | – | – | – | –
26 | CCCCCCCCCCCCCC(=O)N[C@@H](CCCCN)CN1CC(=O)N(CC)C1=O | 6.25 mg/L (≈ 13.8 µM) | 6.25 mg/L (≈ 13.8 µM) | 6.25 mg/L (≈ 13.8 µM) | 12.5 mg/L (≈ 27.6 µM) | 6.25 mg/L (≈ 13.8 µM) | 3.12 mg/L (≈ 6.89 µM) | – | 14.4 | – | – | – | –
